Measurements taken from the supplement of paper PMC10307832.

Legend:
Experiment in all cases: relative viability (nuclei count vs DMSO), 5 days (fraction); higher = more cells survive
ALW-II-49-7 + Pemetrexed = compound: Cc1ccc(C(=O)Nc2cccc(C(F)(F)F)c2)cc1Nc1cncc(C(N)=O)c1 [ALW-II-49-7] + Nc1nc2[nH]cc(CCc3ccc(C(=O)N[C@@H](CCC(=O)O)C(=O)O)cc3)c2c(=O)[nH]1 [Pemetrexed] (partner 0.2 µM)
Procedure, shortened: (§1)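 Lung cancer cell lines were seeded in 1536-well plates and dosed by pin tool the next day, with either a single drug or a fixed anchor-drug dose combined with five library-drug doses (not always all listed) spaced in √10 steps. Five days later, one step fixed the cells and stained their nuclei (final 0.05% Triton X-100, 1% formaldehyde, 1 ug/ml Hoechst), and nuclei were counted on 4× images. Relative viability is the nuclei count in treated wells divided by the count in vehicle wells, and each value is the median of duplicate plates.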

XMD13-2 + Foretinib = compound: C1CC1C(=O)NC2=NNC3=C2C=CC(=C3)C4=CC(=CC=C4)C(=O)NC5CC5 [XMD13-2] + COc1cc2c(Oc3ccc(NC(=O)C4(C(=O)Nc5ccc(F)cc5)CC4)cc3F)ccnc2cc1OCCCN1CCOCC1 [Foretinib] (partner 0.25 µM)
Procedure, shortened: as §1

Dasatinib + OSI-027 = compound: Cc1nc(Nc2ncc(C(=O)Nc3c(C)cccc3Cl)s2)cc(N2CCN(CCO)CC2)n1 [Dasatinib] + COc1cccc2cc(-c3nc([C@H]4CC[C@H](C(=O)O)CC4)n4ncnc(N)c34)[nH]c12 [OSI-027] (partner 0.5 µM)
Procedure, shortened: as §1

ALW-II-49-7 + Alpelisib = compound: Cc1ccc(C(=O)Nc2cccc(C(F)(F)F)c2)cc1Nc1cncc(C(N)=O)c1 [ALW-II-49-7] + Cc1nc(NC(=O)N2CCC[C@H]2C(N)=O)sc1-c1ccnc(C(C)(C)C(F)(F)F)c1 [Alpelisib] (partner 2 µM)
Procedure, shortened: as §1

Cell Line	relative viability (ALW-II-49-7 + Pemetrexed; first compound 0.08 µM)	relative viability (ALW-II-49-7 + Pemetrexed; first compound 0.253 µM)	relative viability (ALW-II-49-7 + Pemetrexed; first compound 0.8 µM)	relative viability (ALW-II-49-7 + Pemetrexed; first compound 2.53 µM)	relative viability (ALW-II-49-7 + Pemetrexed; first compound 8 µM)	relative viability (XMD13-2 + Foretinib; first compound 0.05 µM)	relative viability (XMD13-2 + Foretinib; first compound 0.1581 µM)	relative viability (XMD13-2 + Foretinib; first compound 0.5 µM)	relative viability (XMD13-2 + Foretinib; first compound 1.581 µM)	relative viability (XMD13-2 + Foretinib; first compound 5 µM)	relative viability (Dasatinib + OSI-027; first compound 0.005 µM)	relative viability (Dasatinib + OSI-027; first compound 0.01581 µM)	relative viability (Dasatinib + OSI-027; first compound 0.05 µM)	relative viability (Dasatinib + OSI-027; first compound 0.1581 µM)	relative viability (Dasatinib + OSI-027; first compound 0.5 µM)	relative viability (ALW-II-49-7 + Alpelisib; first compound 0.08 µM)	relative viability (ALW-II-49-7 + Alpelisib; first compound 0.253 µM)	relative viability (ALW-II-49-7 + Alpelisib; first compound 0.8 µM)	relative viability (ALW-II-49-7 + Alpelisib; first compound 2.53 µM)	relative viability (ALW-II-49-7 + Alpelisib; first compound 8 µM)
HCC-366	0.195	0.188	0.155	0.195	0.131	1.02	0.915	0.952	0.905	0.896	0.662	0.338	0.365	0.375	0.243	0.392	0.605	0.417	0.356	0.579
NCI-H1355	0.964	1.13	1.01	1.04	1.07	1.08	0.944	1.04	1.08	1.1	0.434	0.291	0.287	0.272	0.271	0.696	0.867	0.832	0.679	0.645
SW 1573	0.608	0.847	0.77	0.667	0.827	1.01	0.832	0.984	0.841	0.733	0.638	0.532	0.393	0.408	0.296	0.911	0.684	0.914	0.947	0.665
NCI-H661	0.974	0.968	0.944	0.929	0.959	1	1.06	1.04	1.02	0.875	0.686	0.604	0.586	0.522	0.402	0.665	0.691	0.645		0.522
LU99A		0.19	0.163	0.172	0.184	0.977	0.734	0.831	0.824	0.58	0.296		0.264	0.232	0.216	0.491	0.527	0.481	0.482	0.532
LCLC-97TM1	0.147	0.161	0.176	0.16	0.148	1.04	0.918	0.975	0.965	0.685	0.557	0.598	0.55	0.606	0.38	0.245	0.245	0.296	0.195	0.269
LC-2-ad	0.249	0.258	0.273	0.229	0.267	1.07	1.07	0.987	0.789	0.807	0.932	0.867	0.526	0.34	0.345	0.911	0.884	0.847	0.892	0.864
NCI-H1395	0.894	0.984	1.18		0.621	0.983	1.02	1.05	0.992	1	0.615	0.7	0.541	0.361	0.35	1.22	1.1	1.04	0.307	1.09
NCI-H2228	0.323	0.356	0.356	0.289	0.134	0.912	1.13	0.839	0.875	1.02	0.757	0.552	0.522	0.31	0.308	0.647	0.649	0.866	0.75	0.769
NCI-H1944	0.6	0.597	0.611	0.582	0.537	0.898	0.886	0.935	1.04	0.946	0.365	0.404	0.284	0.179	0.174	0.817	0.836	0.807	0.916	0.941
HOP-62	0.313	0.35	0.322	0.307	0.243	1.11	1.13	1.19	1.06	1	0.856	0.864	0.743	0.546	0.196	1.05	1.13	1.14	0.499	0.955
NCI-H2347	0.438	0.441	0.417	0.509	0.377	0.986	0.992	1.17	0.848	1.1	0.233	0.242	0.269	0.234	0.218	1.08	0.98	0.986	0.869	0.873
NCI-H2087	0.637	0.679	0.673	0.606	0.621	1.4	1.27	1.22	1.08	0.727	0.571	0.607	0.697	0.531	0.278	1.26	1.1	1.09	0.973	0.996
EPLC-272H	0.315	0.382	0.289	0.34	0.206	0.71	0.629	0.644	0.568	0.187	0.33	0.338	0.252	0.29	0.091	0.92	0.879	1.02	1.08	1.06
LXF-289	0.822	0.869	0.958	1.05	0.959	0.979	0.973	0.897	0.98	1.06	0.812	0.733	0.567	0.323	0.125	1.07	1.01	1.01	1.17	1.08
COR-L23	0.198	0.208	0.206	0.204	0.177	1.14	0.986	0.977	0.986	0.942	0.628	0.612	0.61	0.46	0.375	0.756	0.536	0.741	0.898	0.667
